Measurements from ChEMBL document CHEMBL5385895, “Design, synthesis, biological evaluation of urea substituted 1,2,5-oxadiazole-3-carboximidamides as novel indoleamine 2,3-dioxygenase-1 (IDO1) inhibitors” (Eur J Med Chem, 2023).
pIC50: −log10 of the molar value. The source made the active and inactive calls. The calls are words filed in the database; no cut-off is given here.

How the values were obtained:
[1] = target: T1, Indoleamine 2,3-dioxygenase 1 (Homo sapiens, UniProt P14902); assay: Inhibition of human recombinant IDO1 assessed as reduction in N-formylkynurenine formation using L-tryptophan as substrate preincubated for 30 mins followed by substrate addition and measured after 20 mins by SpectraMax microplate reader analysis
[2] = target: Tryptophan 2,3-dioxygenase (Homo sapiens) (UniProt P48775); assay: Inhibition of human recombinant TDO assessed as reduction in N-formylkynurenine formation using L-tryptophan as substrate at 1 uM preincubated for 30 mins followed by substrate addition and measured after 20 mins by SpectraMax microplate reader analysis; conditions: time 50.0 min
[3] = target: T2, Indoleamine 2,3-dioxygenase 2 (Homo sapiens) (UniProt Q6ZQW0); assay: Inhibition of human recombinant IDO2 assessed as reduction in N-formylkynurenine formation using L-tryptophan as substrate at 1 uM preincubated for 30 mins followed by substrate addition and measured after 20 mins by SpectraMax microplate reader analysis; conditions: time 50.0 min
T2 sequence (whole entry): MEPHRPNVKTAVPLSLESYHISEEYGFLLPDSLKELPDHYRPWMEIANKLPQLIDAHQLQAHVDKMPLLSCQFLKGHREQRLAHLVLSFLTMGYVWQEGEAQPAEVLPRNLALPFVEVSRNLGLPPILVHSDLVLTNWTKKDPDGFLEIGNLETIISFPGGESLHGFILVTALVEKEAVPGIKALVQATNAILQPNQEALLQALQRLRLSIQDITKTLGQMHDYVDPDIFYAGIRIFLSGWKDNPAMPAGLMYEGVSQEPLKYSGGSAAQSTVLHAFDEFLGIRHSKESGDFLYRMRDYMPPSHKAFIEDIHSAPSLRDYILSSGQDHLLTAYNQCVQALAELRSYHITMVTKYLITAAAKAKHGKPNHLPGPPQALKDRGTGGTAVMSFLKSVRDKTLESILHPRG

[4] = target: T1, Indoleamine 2,3-dioxygenase 1; assay: Inhibition of IDO1 in IFN-gamma-induced human HeLa cells assessed as reduction in N-formylkynurenine formation using L-tryptophan as substrate preincubated for 24 hrs followed by substrate addition and measured after 30 mins by SpectraMax microplate reader analysis; type: cell-based
[5] = AUC (0 to infinity) in Sprague-Dawley rat at 5 mg/kg, iv by LC-MS/MS analysis; type: ADME, organism-based; parameters: dose 5 mg/kg, route iv; conditions: in vivo
[6] = Oral bioavailability in Sprague-Dawley rat at 25 mg/kg by LC-MS/MS analysis; type: ADME, organism-based; conditions: in vivo
[7] = Half life in Sprague-Dawley rat at 25 mg/kg, po by LC-MS/MS analysis; type: ADME, organism-based; conditions: in vivo
[8] = Plasma clearance in Sprague-Dawley rat at 5 mg/kg, iv by LC-MS/MS analysis; type: ADME, organism-based
[9] = Tmax in Sprague-Dawley rat at 25 mg/kg, po by LC-MS/MS analysis; type: ADME, organism-based; conditions: in vivo
[10] = AUC (0 to t) in Sprague-Dawley rat at 5 mg/kg, iv by LC-MS/MS analysis; type: ADME, organism-based; parameters: dose 5 mg/kg, route iv; conditions: in vivo
[11] = AUC (0 to infinity) in Sprague-Dawley rat at 25 mg/kg, po by LC-MS/MS analysis; type: ADME, organism-based; parameters: dose 25 mg/kg, route po; conditions: in vivo
[12] = Half life in Sprague-Dawley rat at 5 mg/kg, iv by LC-MS/MS analysis; type: ADME, organism-based; conditions: in vivo
[13] = Tmax in Sprague-Dawley rat at 5 mg/kg, iv by LC-MS/MS analysis; type: ADME, organism-based; conditions: in vivo
[14] = Volume of distribution in Sprague-Dawley rat at 5 mg/kg, iv by LC-MS/MS analysis; type: ADME, organism-based; conditions: in vivo
[15] = Apparent permeability of the compound across basolateral to apical side in dog MDCKII cells measured for 2 hrs by LC-MS/MS analysis; type: ADME, cell-based, Canis lupus familiaris, MDCK-II; conditions: MDCK
[16] = Cmax in Sprague-Dawley rat at 5 mg/kg, iv by LC-MS/MS analysis; type: ADME, organism-based; parameters: dose 5 mg/kg, route iv; conditions: in vivo
[17] = Apparent permeability of the compound across apical to basolateral side in dog MDCK-II cells measured for 2 hrs by LC-MS/MS analysis; type: ADME, cell-based, Canis lupus familiaris
[18] = AUC (0 to t) in Sprague-Dawley rat at 25 mg/kg, po by LC-MS/MS analysis; type: ADME, organism-based; parameters: dose 25 mg/kg, route po; conditions: in vivo
cells = conditions: Mus musculus, Lung cancer cell line, 24 h
CT26 = assay: cells; conditions: Mus musculus, CT26, 24 h
HCT-116 = assay: cells; conditions: Homo sapiens, HCT-116, 24 h
HeLa = assay: cells; conditions: Homo sapiens, 24 h
[19] = Anti-tumor efficacy against mouse LLC cells implanted in C57BL/6 mouse assessed as tumor growth inhibition at 100 mg/kg, po bid treated for 21 days relative to control; type: functional; conditions: Lewis lung carcinoma, 504 h, time 21 day, read-out: TGI

T1 sequence (P14902 whole entry): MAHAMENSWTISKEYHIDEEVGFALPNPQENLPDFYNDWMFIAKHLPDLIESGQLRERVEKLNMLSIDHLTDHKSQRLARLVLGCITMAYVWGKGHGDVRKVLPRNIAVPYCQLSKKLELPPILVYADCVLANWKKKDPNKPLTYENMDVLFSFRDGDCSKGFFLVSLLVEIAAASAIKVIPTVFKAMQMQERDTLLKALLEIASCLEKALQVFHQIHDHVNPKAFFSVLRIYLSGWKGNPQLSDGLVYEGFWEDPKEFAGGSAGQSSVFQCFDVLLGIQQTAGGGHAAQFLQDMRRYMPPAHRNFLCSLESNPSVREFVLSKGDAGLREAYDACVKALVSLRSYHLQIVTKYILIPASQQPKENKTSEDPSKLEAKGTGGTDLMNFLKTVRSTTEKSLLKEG
Chain of Tryptophan 2,3-dioxygenase (Homo sapiens) (P48775 whole entry, looked up): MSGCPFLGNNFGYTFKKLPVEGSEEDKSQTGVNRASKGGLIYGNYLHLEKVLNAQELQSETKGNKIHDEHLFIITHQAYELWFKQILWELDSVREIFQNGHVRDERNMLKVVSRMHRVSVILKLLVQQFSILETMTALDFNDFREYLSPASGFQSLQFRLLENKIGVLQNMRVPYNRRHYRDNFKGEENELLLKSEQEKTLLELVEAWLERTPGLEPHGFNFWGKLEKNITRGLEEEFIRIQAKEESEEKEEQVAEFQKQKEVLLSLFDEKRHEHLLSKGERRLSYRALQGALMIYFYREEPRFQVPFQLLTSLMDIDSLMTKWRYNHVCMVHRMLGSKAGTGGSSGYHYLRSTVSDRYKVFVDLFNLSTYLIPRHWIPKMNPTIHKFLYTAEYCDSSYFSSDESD

CC(C)NC(=O)Nc1nonc1/C(=N/O)Nc1ccc(F)c(Br)c1
pIC50 [1]: 7.08 | inhibition [2]: inactive | inhibition [3]: inactive | pIC50 [4]: 7.24

O=C(Nc1nonc1/C(=N/O)Nc1ccc(F)c(Br)c1)NC1CCCCC1
pIC50 [1]: 6.26 | inhibition [2]: inactive | inhibition [3]: inactive

CNC(=O)Nc1nonc1/C(=N/O)Nc1ccc(F)c(Br)c1
pIC50 [1]: 6.93 | inhibition [2]: inactive | inhibition [3]: inactive | pIC50 [4]: 7.35

O=C(Nc1nonc1/C(=N/O)Nc1ccc(F)c(Br)c1)N1CCCCC1
pIC50 [1]: < 6.00 | inhibition [2]: inactive | inhibition [3]: inactive

NCCCNC(=O)Nc1nonc1/C(=N/O)Nc1ccc(F)c(Br)c1
pIC50 [1]: < 6.00 | inhibition [2]: inactive | inhibition [3]: inactive

COc1cccc(NC(=O)Nc2nonc2/C(=N/O)Nc2ccc(F)c(Br)c2)c1
pIC50 [1]: 6.74 | inhibition [2]: inactive | inhibition [3]: inactive | pIC50 [4]: 6.95

O=C(Nc1nonc1/C(=N/O)Nc1ccc(F)c(Br)c1)NC1CC1
pIC50 [1]: 7.10 | inhibition [2]: inactive | inhibition [3]: inactive | pIC50 [4]: 7.44

CC(C)CNC(=O)Nc1nonc1/C(=N/O)Nc1ccc(F)c(Br)c1
pIC50 [1]: 7.02 | inhibition [2]: inactive | inhibition [3]: inactive | pIC50 [4]: 7.38

O=C(Nc1ccc(Br)cc1)Nc1nonc1/C(=N/O)Nc1ccc(F)c(Br)c1
pIC50 [1]: 6.65 | inhibition [2]: inactive | inhibition [3]: inactive | pIC50 [4]: 7.16

O=C(Nc1ccc(Cl)cc1)Nc1nonc1/C(=N/O)Nc1ccc(F)c(Br)c1
pIC50 [1]: 6.51 | inhibition [2]: inactive | inhibition [3]: inactive

O=C(Nc1ccccc1)Nc1nonc1/C(=N/O)Nc1ccc(F)c(Br)c1
pIC50 [1]: 6.71 | inhibition [2]: inactive | inhibition [3]: inactive | pIC50 [4]: 7.31

O=C(NCCO)Nc1nonc1/C(=N/O)Nc1ccc(F)c(Br)c1
pIC50 [1]: < 6.00 | inhibition [2]: inactive | inhibition [3]: inactive

NS(=O)(=O)NCCNc1nonc1C(=NO)Nc1ccc(F)c(Br)c1 [EPACADOSTAT]
AUC(0-inf) [5]: 856 ng·h/mL | bioavailability [6]: 12.4% | half-life [7]: 133 min | clearance [8]: 102 mL/min/kg | Tmax [9]: 18.6 min | AUC(0-t) [10]: 836 ng·h/mL | AUC(0-inf) [11]: 530 ng·h/mL | half-life [12]: 38.4 min | Tmax [13]: 1.98 min | Vd [14]: 5.73 L/kg | Papp B→A at 2 h [15]: 7.36 ×10⁻⁶ cm/s | Cmax [16]: 2430 ng/mL | Papp A→B at 2 h [17]: 3.12 ×10⁻⁶ cm/s | AUC(0-t) [18]: 472 ng·h/mL

O=C(Nc1nonc1/C(=N/O)Nc1ccc(F)c(Br)c1)NC1CCCC1
pIC50 [1]: 6.50 | inhibition [2]: inactive | inhibition [3]: inactive

O=C(Nc1ccc(F)cc1)Nc1nonc1/C(=N/O)Nc1ccc(F)c(Br)c1
pIC50 [1]: 6.68 | inhibition [2]: inactive | inhibition [3]: inactive | pIC50 [4]: 7.29

CN(C)C(=O)Nc1nonc1/C(=N/O)Nc1ccc(F)c(Br)c1
pIC50 [1]: 6.46 | inhibition [2]: inactive | inhibition [3]: inactive

CCCCNC(=O)Nc1nonc1/C(=N/O)Nc1ccc(F)c(Br)c1
pIC50 [1]: 6.80 | inhibition [2]: inactive | inhibition [3]: inactive | pIC50 [4]: 6.99

CN1CCN(C(=O)Nc2nonc2/C(=N/O)Nc2ccc(F)c(Br)c2)CC1
pIC50 [1]: 6.21 | inhibition [2]: inactive | inhibition [3]: inactive

O=C(Nc1nonc1/C(=N/O)Nc1ccc(F)c(Br)c1)NC1CCC1
pIC50 [1]: 6.78 | inhibition [2]: inactive | inhibition [3]: inactive | pIC50 [4]: 7.50

O=C(Nc1nonc1/C(=N/O)Nc1ccc(F)c(Br)c1)N1CCC1
pIC50 [1]: 6.20 | inhibition [2]: inactive | inhibition [3]: inactive

COc1ccc(NC(=O)Nc2nonc2/C(=N/O)Nc2ccc(F)c(Br)c2)cc1OC
pIC50 [1]: 6.48 | inhibition [2]: inactive | inhibition [3]: inactive

O=C(Nc1nonc1/C(=N/O)Nc1ccc(F)c(Br)c1)N1CCCC1
pIC50 [1]: < 6.00 | inhibition [2]: inactive | inhibition [3]: inactive

O=C(NCC1CCC1)Nc1nonc1/C(=N/O)Nc1ccc(F)c(Br)c1
pIC50 [1]: 6.96 | inhibition [2]: inactive | inhibition [3]: inactive | pIC50 [4]: 7.39

O=C(NCC1CCCCC1)Nc1nonc1/C(=N/O)Nc1ccc(F)c(Br)c1
pIC50 [1]: 6.07 | inhibition [2]: inactive | inhibition [3]: inactive

CN(C)CCNC(=O)Nc1nonc1/C(=N/O)Nc1ccc(F)c(Br)c1
pIC50 [1]: < 6.00 | inhibition [2]: inactive | inhibition [3]: inactive

COc1ccc(NC(=O)Nc2nonc2/C(=N/O)Nc2ccc(F)c(Br)c2)cc1
pIC50 [1]: 6.83 | inhibition [2]: inactive | inhibition [3]: inactive | pIC50 [4]: 7.36

O=C(NCC1CC1)Nc1nonc1/C(=N/O)Nc1ccc(F)c(Br)c1
pIC50 [1]: 7.11 | pIC50 (cells): < 4.30 | pIC50 (CT26): < 4.10 | pIC50 (HCT-116): 4.26 | inhibition [2]: inactive | inhibition [3]: inactive | pIC50 [4]: 7.52 | pIC50 (HeLa): 4.27

NCCNC(=O)Nc1nonc1/C(=N/O)Nc1ccc(F)c(Br)c1
pIC50 [1]: < 6.00 | inhibition [2]: inactive | inhibition [3]: inactive

CCCNC(=O)Nc1nonc1/C(=N/O)Nc1ccc(F)c(Br)c1
pIC50 [1]: 6.65 | inhibition [2]: inactive | inhibition [3]: inactive | pIC50 [4]: 7.03

NS(=O)(=O)NCCNc1nonc1/C(=N/O)Nc1ccc(F)c(Br)c1 [EPACADOSTAT]
pIC50 (cells): < 4.30 | pIC50 (CT26): 4.19 | pIC50 (HCT-116): 4.44 | inhibition [2]: inactive | inhibition [3]: inactive | inhibition in vivo at 100 mg/kg [19]: 38.8% | pIC50 (HeLa): 4.22

O=C(Nc1nonc1/C(=N/O)Nc1ccc(F)c(Br)c1)N1CCC(O)C1 (stereo not given)
pIC50 [1]: < 6.00 | inhibition [2]: inactive | inhibition [3]: inactive

NCCCCNC(=O)Nc1nonc1/C(=N/O)Nc1ccc(F)c(Br)c1
pIC50 [1]: < 6.00 | inhibition [2]: inactive | inhibition [3]: inactive

COCCCNC(=O)Nc1nonc1/C(=N/O)Nc1ccc(F)c(Br)c1
pIC50 [1]: < 6.00 | inhibition [2]: inactive | inhibition [3]: inactive

COc1ccccc1NC(=O)Nc1nonc1/C(=N/O)Nc1ccc(F)c(Br)c1
pIC50 [1]: 6.53 | inhibition [2]: inactive | inhibition [3]: inactive
